Experimental data: the NIST ThermoML archive (doi:10.1016/j.tca.2011.09.016)
± gives the expanded uncertainty stated by the source.

Conditions: Crystal 2; AC calorimetry

## O=P([O-])(O)P(=O)([O-])O.[NH4+].[NH4+] [diammonium hypodiphosphate]
  Triple point temperature: 177.5 ± 0.1 K
